Among the test systems are OVCAR-8; SK-OV-3; NCI/ADR-RES; Malme-3M; HT-29; IGROV-1; DU-145; NCI-H226; K562; KM12; M14; HCC 2998; A498; MDA-MB-231; NCI-H23; NCI-H460; MOLT-4; RXF 393; HOP-62; SR.
Assay in all cases: NCI tumour cell line growth inhibition, 48 h

Molecules are shown by their SMILES.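 Dose response: 5 concentrations. Exposure: 48 h. Format: 96-well plates. Endpoint: linear interpolation; highest concentration if not reached. Abbreviation: GI50, concentration required for 50% inhibition of growth.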 Activity calls are given as the source filed them. Rule as the data show it: active = GI50 up to about 1.1 µM and inactive = higher. Where a SMILES comes first, the peptide text is derived from it. [ ]: non-standard residue; d: D form. The star is where a group is joined. ξ: configuration not given here. ξD = NC(CC(=O)O)C(=O)O; Ac3c = NC1(C(=O)O)CC1; Boc = CC(C)(C)OC(=O)*; OBn = c1ccc(CO*)cc1

In the case of `CC1=CCCC(C)(O)C2CC(CCC3(C)OC3CC1)C(C)C(=O)O2` (configuration not stated), the GI50 in the experiment with OVCAR-8, with SK-OV-3, in the experiment on NCI/ADR-RES, in the experiment with Malme-3M, in the experiment on HT-29 and with IGROV-1 was > 100 µM (inactive) throughout. Moreover, the GI50 in the experiment with DU-145, with NCI-H226, in the experiment with K562, with KM12, with M14 and in the experiment with HCC 2998 was > 100 µM (inactive) each time. For the same compound, the GI50 in the experiment on A498 is > 100 µM (inactive); with MDA-MB-231, > 100 µM (inactive); in the experiment on NCI-H23 it was > 100 µM (inactive); with NCI-H460, > 100 µM (inactive); in the experiment with MOLT-4 it was 43.7 µM (inactive).

For the compound `Clc1ccc(OCc2nnc(CCCCCCCCc3nnc(COc4ccc(Cl)cc4Cl)n3Nc3ccccc3)n2Nc2ccccc2)c(Cl)c1`, the GI50 was 17.4 µM (inactive) with OVCAR-8; 11.5 µM (inactive) with SK-OV-3; 11.9 µM (inactive) in the experiment with NCI/ADR-RES; 16.3 µM (inactive) in the experiment with RXF 393; 19.5 µM (inactive) in the experiment with Malme-3M; 13.8 µM (inactive) in the experiment on HT-29. Further, the GI50 is 13 µM (inactive) in the experiment on IGROV-1; 18.6 µM (inactive) with DU-145; 9.51 µM (inactive) with NCI-H226; 10.7 µM (inactive) with KM12; 11.3 µM (inactive) in the experiment with M14; 3.02 µM (inactive) in the experiment on HOP-62. Besides, the GI50 is 7.21 µM (inactive) with HCC 2998; 21.4 µM (inactive) in the experiment on A498; 8.41 µM (inactive) with MDA-MB-231; 15.1 µM (inactive) in the experiment on NCI-H23; 4.15 µM (inactive) with NCI-H460; 22.7 µM (inactive) with MOLT-4.

In the case of `CCCCCC#CCOC(=O)C(=[N+]=[N-])P(=O)(c1ccccc1)c1ccccc1`, the GI50 in the experiment with OVCAR-8, in the experiment with SR, in the experiment with SK-OV-3, with RXF 393, in the experiment on Malme-3M and in the experiment on HT-29 was > 10 µM (inactive) throughout. The GI50 in the experiment on IGROV-1, in the experiment with DU-145, in the experiment with NCI-H226, with K562, in the experiment with KM12 and in the experiment on M14 was > 10 µM (inactive) throughout. The GI50 in the experiment with HOP-62, in the experiment with HCC 2998, in the experiment with A498, in the experiment on MDA-MB-231, with NCI-H23 and in the experiment with NCI-H460 was > 10 µM (inactive) in each case. Further, the GI50 in the experiment with MOLT-4 is > 10 µM (inactive).

In the case of `CCC1(CC)C(=O)N(C(=O)c2cc(OC)c(OC)c(OC)c2)N(C(=O)c2cc(OC)c(OC)c(OC)c2)C1=O`, the GI50 with OVCAR-8, in the experiment with SK-OV-3, in the experiment on NCI/ADR-RES, in the experiment on RXF 393, with Malme-3M and with HT-29 was > 50 µM (inactive) each time. Moreover, the GI50 in the experiment on IGROV-1, with DU-145, in the experiment with NCI-H226, in the experiment on K562, in the experiment on KM12 and with M14 was > 50 µM (inactive) in each case. Further, the GI50 in the experiment with HOP-62, in the experiment on HCC 2998, with A498, with MDA-MB-231, in the experiment with NCI-H23 and in the experiment with NCI-H460 was > 50 µM (inactive) in each case.

On to `CSc1nc(=S)[nH]c2c1c(C)nn2-c1ccccc1`, for which the GI50 is 11.2 µM (inactive) with SR; 24.8 µM (inactive) in the experiment with SK-OV-3; 26.2 µM (inactive) with RXF 393; 17.1 µM (inactive) in the experiment with Malme-3M; 28.5 µM (inactive) with HT-29; 15.6 µM (inactive) in the experiment with DU-145. In addition, the GI50 with NCI-H226 is 17.7 µM (inactive); in the experiment on K562, 16.6 µM (inactive); with M14, 40.5 µM (inactive); in the experiment on HOP-62, 41.7 µM (inactive); with HCC 2998 it was 30.6 µM (inactive); in the experiment on A498, 30.5 µM (inactive). In addition, the GI50 in the experiment on MDA-MB-231 was 22.2 µM (inactive); with NCI-H23, 17.6 µM (inactive); in the experiment with NCI-H460 it was 10.2 µM (inactive); in the experiment with MOLT-4 it was 14.2 µM (inactive).

On to `COc1cccc2c1C(=O)c1c(O)c3c(c(O)c1C2=O)C[C@@](O)(/C(C)=N\O)C[C@@H]3OC1CC(N)C(O)C(C)O1` (some centres not stated), for which the GI50 with OVCAR-8 was 1.15 µM (inactive); in the experiment on SR, 0.0615 µM (active); in the experiment on SK-OV-3, 2.23 µM (inactive); with RXF 393, 1.41 µM (inactive); in the experiment on Malme-3M, 0.755 µM (active); with HT-29, 1.34 µM (inactive). Moreover, the GI50 in the experiment on IGROV-1 was 0.76 µM (active); in the experiment on DU-145, 1.72 µM (inactive); in the experiment on NCI-H226 it was 1.81 µM (inactive); in the experiment on K562, 0.553 µM (active); with KM12, 2.39 µM (inactive); with M14 it was 2.28 µM (inactive). For the same compound, the GI50 was 1.24 µM (inactive) in the experiment on HOP-62; 0.834 µM (active) in the experiment with HCC 2998; 0.834 µM (active) with A498; 2.51 µM (inactive) in the experiment on MDA-MB-231; 1.26 µM (inactive) in the experiment with NCI-H23; 0.268 µM (active) with NCI-H460. For the same compound, the GI50 in the experiment with MOLT-4 is 0.0661 µM (active).

On to `Cc1cc(S(=O)(=O)O)ccc1/N=N/c1c(O)ccc2ccccc12`, for which the GI50 in the experiment with OVCAR-8 was > 100 µM (inactive); in the experiment with SK-OV-3 it was > 100 µM (inactive); in the experiment with NCI/ADR-RES, > 100 µM (inactive); in the experiment with RXF 393, > 100 µM (inactive); with Malme-3M, > 100 µM (inactive); with HT-29 it was 82.2 µM (inactive). The GI50 in the experiment on IGROV-1, in the experiment on DU-145, in the experiment with NCI-H226, with K562, in the experiment on KM12 and in the experiment on M14 was > 100 µM (inactive) in each case. The GI50 with HOP-62, with MDA-MB-231, in the experiment with NCI-H23 and with MOLT-4 was > 100 µM (inactive) in each case.

`O=C(/C=C/c1ccc(O)cc1)c1cc(O)cc(O)c1`: the GI50 with OVCAR-8 was 13.4 µM (inactive); with SK-OV-3, 18.2 µM (inactive); in the experiment with NCI/ADR-RES, 18.9 µM (inactive); with RXF 393, 15.8 µM (inactive); in the experiment with Malme-3M, 20.4 µM (inactive); in the experiment on HT-29 it was 17.5 µM (inactive). For the same compound, the GI50 was 13.7 µM (inactive) in the experiment on IGROV-1; 12.7 µM (inactive) in the experiment on DU-145; 24.1 µM (inactive) in the experiment on NCI-H226; 2.68 µM (inactive) in the experiment on K562; 15.7 µM (inactive) in the experiment with M14; 15.6 µM (inactive) in the experiment on HOP-62. Besides, the GI50 is 14.9 µM (inactive) in the experiment on A498, 15.5 µM (inactive) in the experiment with MDA-MB-231, 20.5 µM (inactive) with NCI-H23 and 16.3 µM (inactive) in the experiment on MOLT-4.

In the case of `COC(=O)C1(NC(=O)C(CC(=O)OCc2ccccc2)NC(=O)OC(C)(C)C)CC1` (configuration not stated) (Boc-[ξD](OBn)-[Ac3c]-OMe), the GI50 was > 100 µM (inactive) in the experiment on OVCAR-8; 19.6 µM (inactive) in the experiment on SK-OV-3; > 100 µM (inactive) in the experiment with NCI/ADR-RES; > 100 µM (inactive) in the experiment on RXF 393; > 100 µM (inactive) in the experiment with Malme-3M; > 100 µM (inactive) in the experiment on HT-29. The GI50 in the experiment on IGROV-1, in the experiment on DU-145, in the experiment on NCI-H226, with K562, in the experiment on KM12 and with M14 was > 100 µM (inactive) throughout. Moreover, the GI50 in the experiment with HOP-62, in the experiment with A498, in the experiment on MDA-MB-231, with NCI-H23, in the experiment on NCI-H460 and in the experiment with MOLT-4 was > 100 µM (inactive) in each case.

`Cc1nnc2sc(NN)nn12`: the GI50 in the experiment with OVCAR-8, in the experiment on SK-OV-3, with NCI/ADR-RES, in the experiment with RXF 393, in the experiment with Malme-3M and with HT-29 was > 100 µM (inactive) throughout. Further, the GI50 in the experiment on IGROV-1, in the experiment with DU-145, in the experiment with NCI-H226, with K562, with KM12 and in the experiment with M14 was > 100 µM (inactive) throughout. In addition, the GI50 in the experiment on HOP-62 was > 100 µM (inactive); in the experiment on A498 it was > 100 µM (inactive); in the experiment with MDA-MB-231, > 100 µM (inactive); with NCI-H23, > 100 µM (inactive); with NCI-H460, > 100 µM (inactive); in the experiment on MOLT-4, 17.5 µM (inactive).

In the case of `CCOP(=O)(/C=C\n1cnc2c(=O)n(C(C)=O)c(N)nc21)OCC`, the GI50 in the experiment on OVCAR-8, in the experiment on SK-OV-3, in the experiment with NCI/ADR-RES, in the experiment with RXF 393, with HT-29 and in the experiment with IGROV-1 was > 100 µM (inactive) in each case. For the same compound, the GI50 in the experiment on DU-145, in the experiment on NCI-H226, in the experiment with K562, in the experiment on KM12, in the experiment with M14 and in the experiment with HOP-62 was > 100 µM (inactive) throughout. The GI50 in the experiment on A498 was > 100 µM (inactive); in the experiment with MDA-MB-231, 69.7 µM (inactive); with NCI-H23, > 100 µM (inactive); in the experiment with NCI-H460, > 100 µM (inactive); in the experiment on MOLT-4, > 100 µM (inactive).

The values above are taken from ChEMBL document CHEMBL1201862, “PubChem BioAssay data set” (2004).
